# Test results reported in patent US20080182798A1, “Novel effectors of dipeptidyl peptidase IV” (priority 1998, published 2008).
# Structures can show the parent of a compound that is named as a salt.
# Legend:
# dipeptidyl peptidase IV = dipeptidyl peptidase IV (Homo sapiens, UniProt P27487); assay: Action of effectors on the DP IV-catalysed hydrolysis of H-Gly-Pro-pNA; type: biochemical; conditions: 0.4 mM H-Gly-Pro-pNA, 30° C., pH 7.6, ionic strength 0.125; for remaining activity at 10 µM / % Residual activity of DP IV in the presence of 10 μM effector: 10 μM effector; for remaining activity at 10 µM: read-out: % Residual activity of DP IV in the presence of 10 μM effector; for Ki: read-out: Effector affinity to DP IV: Ki
# Sequence of dipeptidyl peptidase IV (P27487 whole entry, species assumed): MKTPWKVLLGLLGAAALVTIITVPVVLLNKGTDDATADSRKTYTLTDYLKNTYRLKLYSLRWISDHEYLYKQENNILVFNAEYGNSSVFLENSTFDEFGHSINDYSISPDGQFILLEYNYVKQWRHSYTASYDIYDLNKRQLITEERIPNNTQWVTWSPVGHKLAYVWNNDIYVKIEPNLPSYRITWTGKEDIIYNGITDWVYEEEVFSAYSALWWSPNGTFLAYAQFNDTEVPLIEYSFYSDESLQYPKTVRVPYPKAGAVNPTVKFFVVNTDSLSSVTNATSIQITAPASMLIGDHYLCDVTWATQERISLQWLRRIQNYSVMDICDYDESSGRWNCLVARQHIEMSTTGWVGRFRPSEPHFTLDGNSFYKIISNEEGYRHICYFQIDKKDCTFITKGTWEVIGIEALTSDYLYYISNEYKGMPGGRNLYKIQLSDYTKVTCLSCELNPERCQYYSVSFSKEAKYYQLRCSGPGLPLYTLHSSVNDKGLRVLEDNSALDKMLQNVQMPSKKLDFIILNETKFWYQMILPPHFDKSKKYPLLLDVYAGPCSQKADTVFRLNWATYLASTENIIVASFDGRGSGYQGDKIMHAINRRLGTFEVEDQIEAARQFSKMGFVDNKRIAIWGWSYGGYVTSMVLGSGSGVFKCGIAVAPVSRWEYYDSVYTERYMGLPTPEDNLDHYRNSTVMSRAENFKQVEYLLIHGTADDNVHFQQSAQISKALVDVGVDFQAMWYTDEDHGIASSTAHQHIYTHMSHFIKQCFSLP
# [1] = test system: circulating blood glucose; assay: Circulating blood glucose after oral administration with synchronous glucose tolerance test; type: in vivo, Wistar rat; conditions: for Glucose concentration in % L-allo-Ile-thiazolidide-treated: oral 20 μM, within 60 min, % based on normoglycaemic values (control 100)
# [2] = target: T1, peptide transporter Pep T1 (Homo sapiens, UniProt P46059); assay: Transport by the peptide transporter Pep T1; type: in vitro ADME; conditions: in comparison with L-threo-isoleucyl thiazolidide
# T1 sequence (P46059 1-708): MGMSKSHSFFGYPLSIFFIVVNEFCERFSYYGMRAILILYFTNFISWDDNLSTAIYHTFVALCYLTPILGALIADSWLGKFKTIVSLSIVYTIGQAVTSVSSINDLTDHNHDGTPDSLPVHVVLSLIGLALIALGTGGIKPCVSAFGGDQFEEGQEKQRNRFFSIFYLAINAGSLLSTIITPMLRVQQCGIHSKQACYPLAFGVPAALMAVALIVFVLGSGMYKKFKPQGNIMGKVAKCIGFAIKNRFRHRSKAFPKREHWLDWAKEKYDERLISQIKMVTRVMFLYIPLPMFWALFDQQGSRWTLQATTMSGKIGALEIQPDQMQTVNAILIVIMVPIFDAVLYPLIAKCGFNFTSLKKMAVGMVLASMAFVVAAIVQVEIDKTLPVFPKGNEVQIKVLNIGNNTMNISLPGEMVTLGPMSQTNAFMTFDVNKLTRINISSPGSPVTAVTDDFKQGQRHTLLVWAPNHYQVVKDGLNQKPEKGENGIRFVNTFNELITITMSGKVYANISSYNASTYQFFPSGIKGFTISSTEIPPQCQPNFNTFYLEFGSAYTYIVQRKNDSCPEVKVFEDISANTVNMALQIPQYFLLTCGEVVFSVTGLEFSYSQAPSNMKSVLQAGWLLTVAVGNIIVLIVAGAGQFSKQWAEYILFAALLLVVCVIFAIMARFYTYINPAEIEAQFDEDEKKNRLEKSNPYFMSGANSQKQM
# [3] = Testing the solubility of salts of Ile-Thia in distilled water; type: physicochemical; conditions: H2Odist.
# Method: Testing the Solubility of Salts of Ile-Thia
# Addition of 100 μl H2Odist.
Structure (SMILES),remaining activity at 10 µM (dipeptidyl peptidase IV) [%],Ki (dipeptidyl peptidase IV) [µM],further results
NC(=O)CC(N)C(=O)N1CCCC1 (centres unmarked) [H-Asn-pyrrolidide],83.1,12,
NC(CC(=O)NO)C(=O)N1CCCC1 (centres unmarked) [H-Asp(NHOH)-pyrrolidide],88.2,13,
NC(CC(=O)O)C(=O)N1CCCC1 (centres unmarked) [H-Asp-pyrrolidide],81.6,14,
CC[C@H](C)[C@H](N)C(=O)N1CC1 [H-Ile-azididide],,3.1,% Residual activity of DP IV in the presence of 10 μM effector (dipeptidyl peptidase IV): 43.8%
"CC[C@@H](C)[C@H](N)C(=O)N1CCSC1 [H-L-allo-Ile-thiazolidide, L-allo-isoleucyl thiazolidide]",,,"Glucose concentration in % L-allo-Ile-thiazolidide-treated ([1]; Wistar rat (diabetes 2b-model, obese)): 73%; Glucose concentration in % L-allo-Ile-thiazolidide-treated ([1]; Wistar rat, normal): 82%; Degree of action with respect to glucose modulation ([1]; in comparison with L-threo-isoleucyl thiazolidide): approximately the same degree of action; Improvement in transport by the peptide transporter Pep T1 [2]: approximately five-fold"
"CC[C@H](C)[C@H](N)C(=O)N1CCSC1 [L-threo-IT*F, L-threo-isoleucyl thiazolidide fumarate]",,,Wettability and decomposition in water [3]: scarcely wettable and does not decompose; Solubility: concentration at complete dissolution ([3]; visual): 2.63%
"C[C@H]1O[C@H](O[C@H]2[C@H](O)[C@@H](O)[C@@H](O[C@H]3[C@H](O)[C@@H](O)C(O)O[C@@H]3CO)O[C@@H]2CO)[C@H](O)[C@@H](O)[C@@H]1N[C@H]1C=C(CO)[C@@H](O)[C@H](O)[C@H]1O (some centres unmarked) [acarbose, reference compound]",100,> 1000,
"COc1ccc(Cl)cc1C(=O)NCCc1ccc(S(=O)(=O)NC(=O)NC2CCCCC2)cc1 [glibenclamide, reference compound]",100,> 1000,
"CN(C)C(=N)N=C(N)N [metformin, reference compound]",100,> 1000,

# Continued by falling Ki (dipeptidyl peptidase IV), values first:
remaining activity at 10 µM (dipeptidyl peptidase IV) [%],Ki (dipeptidyl peptidase IV) [µM],Structure (SMILES),further results
54.5,8.8,NC(CC(=O)NO)C(=O)N1CCSC1 (centres unmarked) [H-Asp(NHOH)-thiazolidide],
47.2,3.5,NC(=O)CC(N)C(=O)N1CCSC1 (centres unmarked) [H-Asn-thiazolidide],
49.7,3.5,NC(Cc1c[nH]cn1)C(=O)N1CCCC1 (centres unmarked) [H-His-pyrrolidide],
45.6,2.9,NC(CC(=O)O)C(=O)N1CCSC1 (centres unmarked) [H-Asp-thiazolidide],
,2.8,NC(CCC(=O)NO)C(=O)N1CCCC1 (centres unmarked) [H-Glu(NHOH)-pyrrolidide],% Residual activity of DP IV in the presence of 10 μM effector (dipeptidyl peptidase IV): 44.9%
35.2,1.8,NC(Cc1c[nH]cn1)C(=O)N1CCSC1 (centres unmarked) [H-His-thiazolidide],
36.5,1.7,NC(CCC(=O)NO)C(=O)N1CCSC1 (centres unmarked) [H-Glu(NHOH)-thiazolidide],
25,0.61,NC(CCC(=O)O)C(=O)N1CCSC1 (centres unmarked) [H-Glu-thiazolidide],
13.6,0.27,CC(C)C(N)C(=O)N1CCSC1 (centres unmarked) [H-Val-thiazolidide],
